A value given as a limit tells only on which side of the number the result lay.

For this experiment, the system named is bovine cardiac myofibrils. Kind of experiment: Myofibril assay: PK/LDH-coupled steady-state ATPase activity of skinned bovine cardiac myofibrils. It is filed as biochemical. To be noted: Ca2+ activating to 75% of maximal rate. In a few lines:
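Steady-state ATPase of detergent-skinned bovine left-ventricular myofibrils (1 mg/mL), PK/LDH-coupled NADH read at 340 nm, in PIPES/MgCl2 buffer pH 6.8 with 50 μM ATP, 0.6 mM EGTA and CaCl2 set for 50% or 75% activation. Inhibition of activity measured.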
For the molecule `O=C1CN(c2ncc(Cl)cc2F)C(=O)C2(COC2)N1Cc1ccc(Cl)cc1` [Compound 575, 8-(5-chloro-3-fluoropyridin-2-yl)-5-(4-chlorobenzyl)-2-oxa-5,8-diazaspiro[3.5]nonane-6,9-dione], the “CDMF75 IC15” value came to 1.5 µM.

Turning to `CC1(C)C(=O)N(c2ncc(Cl)cc2F)CC(=O)N1Cc1ccc(Cl)cc1` [Compound 576, 1-(5-chloro-3-fluoropyridin-2-yl)-4-(4-chlorobenzyl)-3,3-dimethylpiperazine-2,5-dione], the “CDMF75 IC15” value is 2.2 µM.

Consider `O=C1CN(c2ncc(Cl)cc2F)C(=O)C2(CC2)N1Cc1ccc(Cl)cc1` [Compound 577, 7-(5-chloro-3-fluoropyridin-2-yl)-4-(4-chlorobenzyl)-4,7-diazaspiro[2.5]octane-5,8-dione], for which the “CDMF75 IC15” value is 0.9 µM.

In the case of `CNC(=O)N1CC2(C1)C(=O)N(c1ncc(Cl)cc1F)CC(=O)N2[C@@H](C)c1ccc(C(F)(F)F)cc1` [Compound 592, (S)-8-(5-chloro-3-fluoro-pyridin-2-yl)-N-methyl-6,9-dioxo-5-(1-(4-(trifluoromethyl)phenyl)-ethyl)-2,5,8-triazaspiro-[3.5]nonane-2-carboxamide], the “CDMF75 IC15” value came to 1.3 µM.

As for `C[C@@H](c1ccc(C(F)(F)F)cc1)N1C(=O)CN(c2ncc(Cl)cc2F)C(=O)C12CN(CC(F)F)C2` [Compound 593, (S)-8-(5-chloro-3-fluoro-pyridin-2-yl)-2-(2,2-difluoroethyl)-5-(l-(4-(trifluoromethyl)phenyl)-ethyl)-2,5,8-triazaspiro-[3.5]nonane-6,9-dione], the “CDMF75 IC15” value worked out at 2.3 µM.

In the case of `CSCCC1C(=O)N(c2ncc(Cl)cc2F)CC(=O)N1Cc1ccc(C(F)(F)F)cc1` (stereo not shown) [Compound 610, 1-(5-chloro-3-fluoropyridin-2-yl)-3-(2-(methylthio)-ethyl)-4-(4-(trifluoro-methyl)-benzyl)piperazine-2,5-dione], the “CDMF75 IC15” value worked out at 1.7 µM.

Take `CS(=O)(=O)CCC1C(=O)N(c2ncc(Cl)cc2F)CC(=O)N1Cc1ccc(C(F)(F)F)cc1` (stereo not shown) [Compound 612, 1-(5-chloro-3-fluoropyridin-2-yl)-3-(2-(methylsulfonyl)-ethyl)-4-(4-(trifluoro-methyl)benzyl)piperazine-2,5-dione]: the “CDMF75 IC15” value turned out to be 13.6 µM.

In the case of `COC(=O)N1CC2(C1)C(=O)N(c1ncc(Cl)cc1F)CC(=O)N2[C@@H](C)c1ccc(C(F)(F)F)cc1` [Compound 615, methyl (S)-8-(5-chloro-3-fluoropyridin-2-yl)-6,9-dioxo-5-(1-(4-(trifluoro-methyl)phenyl)ethyl)-2,5,8-triazaspiro[3.5]-nonane-2-carboxylate], the “CDMF75 IC15” value turned out to be 1.3 µM.

For `C[C@H](c1ccc(Cl)cc1)N1C(=O)CN(c2ncc(Cl)cc2F)C(=O)C12CC2` [Compound 616, (R)-7-(5-chloro-3-fluoro-pyridin-2-yl)-4-(1-(4-chlorophenyl)ethyl)-4,7-diazaspiro[2.5]octane-5,8-dione], the “CDMF75 IC15” value stood at 11.85 µM.

As for `C[C@@H](c1ccc(C(F)(F)F)cc1)N1C(=O)CN(c2ncc(Cl)cc2F)C(=O)C12CN(C=O)C2` [Compound 620, (S)-8-(5-chloro-3-fluoro-pyridin-2-yl)-6,9-dioxo-5-(1-(4-(trifluoromethyl)-phenyl)ethyl)-2,5,8-triazaspiro[3.5]nonane-2-carbaldehyde], the “CDMF75 IC15” value came to 1.8 µM.

Regarding `CC1(C2C(=O)N(c3ncc(Cl)cc3F)CC(=O)N2Cc2ccc(C(F)(F)F)cc2)COC1` (stereo not shown) [Compound 623, 1-(5-chloro-3-fluoropyridin-2-yl)-3-(3-methyloxetan-3-yl)-4-(4-(trifluoro-methyl)-benzyl)piperazine-2,5-dione], the “CDMF75 IC15” value was 3.0 µM.

In the case of `CC1(C2C(=O)N(c3ncc(Cl)cc3F)CC(=O)N2Cc2ccc(Cl)cc2)COC1` (stereo not shown) [Compound 624, 1-(5-chloro-3-fluoropyridin-2-yl)-4-(4-chlorobenzyl)-3-(3-methyloxetan-3-yl)-piperazine-2,5-dione], the “CDMF75 IC15” value was determined as 2.0 µM.

Consider `CC(=O)NC[C@H]1C(=O)N(c2ncc(Cl)cc2F)CC(=O)N1Cc1ccc(C(F)(F)F)cc1` [Compound 625, (S)-N-((4-(5-chloro-3-fluoropyridin-2-yl)-3,6-dioxo-1-(4-(trifluoro-methyl)benzyl)piperazin-2-yl)methyl)acetamide], for which the “CDMF75 IC15” value was 14.5 µM.

Consider `CC(=O)NC[C@@H]1C(=O)N(c2ncc(Cl)cc2F)CC(=O)N1Cc1ccc(C(F)(F)F)cc1` [Compound 626, (R)-N-((4-(5-chloro-3-fluoropyridin-2-yl)-3,6-dioxo-1-(4-(trifluoro-methyl)benzyl)piperazin-2-yl)methyl)acetamide], for which the “CDMF75 IC15” value is >39 µM.

For the molecule `CC(=O)NCC1C(=O)N(c2ncc(Cl)cc2F)CC(=O)N1Cc1ccc(C(F)(F)F)cc1` (stereo not shown) [Compound 629, N-((4-(5-chloro-3-fluoro-pyridin-2-yl)-3,6-dioxo-1-(4-(trifluoromethyl)-benzyl)piperazin-2-yl)-methyl)acetamide], the “CDMF75 IC15” value was determined as 32.4 µM.

Turning to `CC(=O)NCC1(C)C(=O)N(c2ncc(Cl)cc2F)CC(=O)N1Cc1ccc(Cl)cc1` (stereo not shown) [Compound 631, N-((4-(5-chloro-3-fluoro-pyridin-2-yl)-1-(4-chloro-benzyl)-2-methyl-3,6-dioxopiperazin-2-yl)-methyl)acetamide], the “CDMF75 IC15” value stood at 17.3 µM.

`CC(=O)NCC1C(=O)N(c2ncc(Cl)cc2F)CC(=O)N1Cc1ccc(Cl)cc1` (stereo not shown) [Compound 632, N-((4-(5-chloro-3-fluoro-pyridin-2-yl)-1-(4-chloro-benzyl)-3,6-dioxopiperazin-2-yl)methyl)acetamide]: the “CDMF75 IC15” value came to 31.7 µM.

`O=C1C(C2COC2)N(Cc2ccc(Cl)cc2)C(=O)CN1c1ncc(Cl)cc1F` (stereo not shown) [Compound 633, 1-(5-chloro-3-fluoropyridin-2-yl)-4-(4-chlorobenzyl)-3-(oxetan-3-yl)piperazine-2,5-dione]: the “CDMF75 IC15” value is 1.3 µM.

As to `CC1(C(F)F)C(=O)N(c2ncc(Cl)cc2F)CC(=O)N1Cc1ccc(Cl)cc1` (stereo not shown) [Compound 636, 1-(5-chloro-3-fluoropyridin-2-yl)-4-(4-chlorobenzyl)-3-(difluoromethyl)-3-methylpiperazine-2,5-dione], the “CDMF75 IC15” value was 1.3 µM.

As to `O=C1C(CC2COC2)N(Cc2ccc(C(F)(F)F)cc2)C(=O)CN1c1ncc(Cl)cc1F` (stereo not shown) [Compound 639, 1-(5-chloro-3-fluoropyridin-2-yl)-3-(oxetan-3-ylmethyl)-4-(4-(trifluoromethyl)-benzyl)piperazine-2,5-dione], the “CDMF75 IC15” value amounted to 1.4 µM.

As for `O=C1C(CC2COC2)N(Cc2ccc(Cl)cc2)C(=O)CN1c1ncc(Cl)cc1F` (stereo not shown) [Compound 640, 1-(5-chloro-3-fluoropyridin-2-yl)-4-(4-chlorobenzyl)-3-(oxetan-3-ylmethyl)-piperazine-2,5-dione], the “CDMF75 IC15” value came to 1.6 µM.

As for `CNC(=O)N1CC(C2C(=O)N(c3ncc(Cl)cc3F)CC(=O)N2Cc2ccc(C(F)(F)F)cc2)C1` (stereo not shown) [Compound 641, 3-(4-(5-chloro-3-fluoro-pyridin-2-yl)-3,6-dioxo-1-(4-(trifluoromethyl)-benzyl)piperazin-2-yl)-N-methylazetidine-1-carboxamide], the “CDMF75 IC15” value was determined as 12.2 µM.

As to `CNC(=O)N1CC(C2C(=O)N(c3ncc(Cl)cc3F)CC(=O)N2Cc2ccc(Cl)cc2)C1` (stereo not shown) [Compound 642, 3-(4-(5-chloro-3-fluoro-pyridin-2-yl)-1-(4-chloro-benzyl)-3,6-dioxopiperin-2-yl)-N-methylazetidine-1-carboxamide], the “CDMF75 IC15” value is 10.9 µM.

Take `CC(=O)N1CC(C2C(=O)N(c3ncc(Cl)cc3F)CC(=O)N2Cc2ccc(C(F)(F)F)cc2)C1` (stereo not shown) [Compound 643, 3-(1-acetylazetidin-3-yl)-1-(5-chloro-3-fluoropyridin-2-yl)-4-(4-(trifluoro-methyl)benzyl)piperazine-2,5-dione]: the “CDMF75 IC15” value was found to be 5.8 µM.

For the molecule `CC(=O)N1CC(C2C(=O)N(c3ncc(Cl)cc3F)CC(=O)N2Cc2ccc(Cl)cc2)C1` (stereo not shown) [Compound 644, 3-(1-acetylazetidin-3-yl)-1-(5-chloro-3-fluoropyridin-2-yl)-4-(4-chlorobenzyl)-piperazine-2,5-dione], the “CDMF75 IC15” value stood at 6.8 µM.

Consider `Cc1cc(Cl)cnc1N1CC(=O)N(Cc2ccc(C(F)(F)F)cc2)C(C2COC2)C1=O` (stereo not shown) [Compound 645, 1-(5-chloro-3-methylpyridin-2-yl)-3-(oxetan-3-yl)-4-(4-(trifluoromethyl)benzyl)-piperazine-2,5-dione], for which the “CDMF75 IC15” value stood at 5.8 µM.

`O=C1C(C2COC2)N(Cc2ccc(F)cc2)C(=O)CN1c1ncc(Cl)cc1F` (stereo not shown) [Compound 646, 1-(5-chloro-3-fluoropyridin-2-yl)-4-(4-fluorobenzyl)-3-(oxetan-3-yl)piperazine-2,5-dione]: the “CDMF75 IC15” value worked out at 3.3 µM.

Turning to `O=C1C(C2COC2)N(Cc2ccc(F)c(F)c2)C(=O)CN1c1ncc(Cl)cc1F` (stereo not shown) [Compound 647, 1-(5-chloro-3-fluoropyridin-2-yl)-4-(3,4-difluorobenzyl)-3-(oxetan-3-yl)piperazine-2,5-dione], the “CDMF75 IC15” value was 2.1 µM.

For the molecule `O=C1C(C2COC2)N(Cc2ccc(Cl)c(F)c2)C(=O)CN1c1ncc(Cl)cc1F` (stereo not shown) [Compound 648, 4-(4-chloro-3-fluorobenzyl)-1-(5-chloro-3-fluoropyridin-2-yl)-3-(oxetan-3-yl)-piperazine-2,5-dione], the “CDMF75 IC15” value was 2.0 µM.

With `O=C1C(C2COC2)N(Cc2ccc(C(F)(F)F)c(F)c2)C(=O)CN1c1ncc(Cl)cc1F` (stereo not shown) [Compound 649, 1-(5-chloro-3-fluoropyridin-2-yl)-4-(3-fluoro-4-(trifluoromethyl)benzyl)-3-(oxetan-3-yl)piperazine-2,5-dione], the “CDMF75 IC15” value worked out at 2.9 µM.

Regarding `O=C1C(C2COC2)N(Cc2ccc(C(F)F)cc2)C(=O)CN1c1ncc(Cl)cc1F` (stereo not shown) [Compound 650, 1-(5-chloro-3-fluoropyridin-2-yl)-4-(4-(difluoro-methyl)benzyl)-3-(oxetan-3-yl)piperazine-2,5-dione], the “CDMF75 IC15” value stood at 2.5 µM.

Source of the values: US11414424B2, “Cardiac sarcomere inhibitors” (Cytokinetics, Inc., priority 2018, dated 2022).
